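Following 48 hours of exposure in 96-well plates, responses at five concentrations were used to interpolate endpoints linearly. TGI marks complete inhibition of growth.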
Tests used:
Assay in all cases: NCI anticancer screen, dose series, 48 h
A549 NSCLC = test system: A549 NSCLC
OVCAR-3 ovarian = test system: OVCAR-3 ovarian
A498 renal = test system: A498 renal
HOP-62 NSCLC = test system: HOP-62 NSCLC
NCI-H460 lung = test system: NCI-H460 lung
OVCAR-8 ovarian = test system: OVCAR-8 ovarian
SK-MEL-2 melanoma = test system: SK-MEL-2 melanoma
PC-3 prostate = test system: PC-3 prostate
COLO 205 colon = test system: COLO 205 colon
HS 578T breast = test system: HS 578T breast
MDA-MB-435 = test system: MDA-MB-435
EKVX NSCLC = test system: EKVX NSCLC
HL-60(TB) leukemia = test system: HL-60(TB) leukemia
SNB-19 CNS = test system: SNB-19 CNS
SNB-75 CNS = test system: SNB-75 CNS
RPMI-8226 leukemia = test system: RPMI-8226 leukemia
TK-10 renal = test system: TK-10 renal
UACC-257 melanoma = test system: UACC-257 melanoma
RXF 393 renal = test system: RXF 393 renal
T-47D breast = test system: T-47D breast
MDA-MB-231 breast = test system: MDA-MB-231 breast
CAKI-1 renal = test system: CAKI-1 renal
HCC-2998 colon = test system: HCC-2998 colon
OVCAR-4 ovarian = test system: OVCAR-4 ovarian
HOP-92 NSCLC = test system: HOP-92 NSCLC
UO-31 renal = test system: UO-31 renal
SF-268 CNS = test system: SF-268 CNS
NCI-H23 lung = test system: NCI-H23 lung
U251 CNS = test system: U251 CNS
UACC-62 melanoma = test system: UACC-62 melanoma
786-0 renal = test system: 786-0 renal
SK-OV-3 ovarian = test system: SK-OV-3 ovarian
NCI-H522 lung = test system: NCI-H522 lung
SW-620 colon = test system: SW-620 colon
DU-145 prostate = test system: DU-145 prostate
ACHN renal = test system: ACHN renal
SK-MEL-5 melanoma = test system: SK-MEL-5 melanoma
NCI-H226 lung = test system: NCI-H226 lung
MDA-N = test system: MDA-N
MCF7 breast = test system: MCF7 breast
KM12 colon = test system: KM12 colon
NCI/ADR-RES ovarian = test system: NCI/ADR-RES ovarian
LOX IMVI melanoma = test system: LOX IMVI melanoma
SK-MEL-28 melanoma = test system: SK-MEL-28 melanoma
K-562 leukemia = test system: K-562 leukemia
HCT-116 colon = test system: HCT-116 colon
BT-549 breast = test system: BT-549 breast
HT29 colon = test system: HT29 colon
HCT-15 colon = test system: HCT-15 colon
SN12C renal = test system: SN12C renal
SF-295 CNS = test system: SF-295 CNS
MOLT-4 leukemia = test system: MOLT-4 leukemia
OVCAR-5 ovarian = test system: OVCAR-5 ovarian
MALME-3M melanoma = test system: MALME-3M melanoma
M14 melanoma = test system: M14 melanoma
IGROV1 ovarian = test system: IGROV1 ovarian
CCRF-CEM leukemia = test system: CCRF-CEM leukemia
SF-539 CNS = test system: SF-539 CNS
SR leukemia = test system: SR leukemia

CC(C)CCNc1ncnc2[nH]ncc12
TGI (A549 NSCLC): > 100 µM
TGI (OVCAR-3 ovarian): > 100 µM
TGI (A498 renal): > 100 µM
TGI (HOP-62 NSCLC): > 100 µM
TGI (NCI-H460 lung): > 100 µM
TGI (OVCAR-8 ovarian): > 100 µM
TGI (SK-MEL-2 melanoma): > 100 µM
TGI (PC-3 prostate): > 100 µM
TGI (COLO 205 colon): > 100 µM
TGI (HS 578T breast): > 100 µM
TGI (MDA-MB-435): > 100 µM
TGI (EKVX NSCLC): > 100 µM
TGI (HL-60(TB) leukemia): > 100 µM
TGI (SNB-19 CNS): > 100 µM
TGI (SNB-75 CNS): > 100 µM
TGI (RPMI-8226 leukemia): > 100 µM
TGI (TK-10 renal): > 100 µM
TGI (UACC-257 melanoma): > 100 µM
TGI (RXF 393 renal): > 100 µM
TGI (T-47D breast): > 100 µM
TGI (MDA-MB-231 breast): > 100 µM
TGI (CAKI-1 renal): > 100 µM
TGI (HCC-2998 colon): > 100 µM
TGI (OVCAR-4 ovarian): > 100 µM
TGI (HOP-92 NSCLC): > 100 µM
TGI (UO-31 renal): > 100 µM
TGI (SF-268 CNS): > 100 µM
TGI (NCI-H23 lung): > 100 µM
TGI (U251 CNS): > 100 µM
TGI (UACC-62 melanoma): > 100 µM
TGI (786-0 renal): > 100 µM
TGI (SK-OV-3 ovarian): > 100 µM
TGI (NCI-H522 lung): > 100 µM
TGI (SW-620 colon): > 100 µM
TGI (DU-145 prostate): > 100 µM
TGI (ACHN renal): > 100 µM
TGI (SK-MEL-5 melanoma): > 100 µM
TGI (NCI-H226 lung): > 100 µM
TGI (MDA-N): > 100 µM
TGI (MCF7 breast): > 100 µM
TGI (KM12 colon): > 100 µM
TGI (NCI/ADR-RES ovarian): > 100 µM
TGI (LOX IMVI melanoma): > 100 µM
TGI (SK-MEL-28 melanoma): > 100 µM
TGI (K-562 leukemia): > 100 µM
TGI (HCT-116 colon): > 100 µM
TGI (BT-549 breast): > 100 µM
TGI (HT29 colon): > 100 µM
TGI (HCT-15 colon): > 100 µM
TGI (SN12C renal): > 100 µM
TGI (SF-295 CNS): > 100 µM
TGI (MOLT-4 leukemia): > 100 µM
TGI (OVCAR-5 ovarian): > 100 µM
TGI (MALME-3M melanoma): > 100 µM
TGI (M14 melanoma): > 100 µM
TGI (IGROV1 ovarian): > 100 µM

O=C(O)CN1CCNCCNCC1
TGI (A549 NSCLC): > 100 µM
TGI (OVCAR-3 ovarian): > 100 µM
TGI (A498 renal): > 100 µM
TGI (HOP-62 NSCLC): > 100 µM
TGI (NCI-H460 lung): > 100 µM
TGI (OVCAR-8 ovarian): > 100 µM
TGI (SK-MEL-2 melanoma): > 100 µM
TGI (PC-3 prostate): > 100 µM
TGI (COLO 205 colon): > 100 µM
TGI (HS 578T breast): > 100 µM
TGI (MDA-MB-435): > 100 µM
TGI (EKVX NSCLC): > 100 µM
TGI (HL-60(TB) leukemia): 68.5 µM
TGI (SNB-19 CNS): > 100 µM
TGI (SNB-75 CNS): > 100 µM
TGI (RPMI-8226 leukemia): > 100 µM
TGI (TK-10 renal): > 100 µM
TGI (UACC-257 melanoma): > 100 µM
TGI (T-47D breast): > 100 µM
TGI (MDA-MB-231 breast): > 100 µM
TGI (CAKI-1 renal): > 100 µM
TGI (OVCAR-4 ovarian): > 100 µM
TGI (HOP-92 NSCLC): > 100 µM
TGI (UO-31 renal): > 100 µM
TGI (U251 CNS): > 100 µM
TGI (UACC-62 melanoma): > 100 µM
TGI (786-0 renal): > 100 µM
TGI (SK-OV-3 ovarian): > 100 µM
TGI (SW-620 colon): > 100 µM
TGI (DU-145 prostate): > 100 µM
TGI (ACHN renal): > 100 µM
TGI (SK-MEL-5 melanoma): > 100 µM
TGI (CCRF-CEM leukemia): > 100 µM
TGI (NCI-H226 lung): > 100 µM
TGI (MDA-N): > 100 µM
TGI (MCF7 breast): > 100 µM
TGI (KM12 colon): > 100 µM
TGI (NCI/ADR-RES ovarian): > 100 µM
TGI (LOX IMVI melanoma): > 100 µM
TGI (SK-MEL-28 melanoma): > 100 µM
TGI (K-562 leukemia): > 100 µM
TGI (HCT-116 colon): > 100 µM
TGI (BT-549 breast): > 100 µM
TGI (HT29 colon): > 100 µM
TGI (SF-539 CNS): > 100 µM
TGI (SR leukemia): > 100 µM
TGI (HCT-15 colon): > 100 µM
TGI (SN12C renal): > 100 µM
TGI (MOLT-4 leukemia): > 100 µM
TGI (OVCAR-5 ovarian): > 100 µM
TGI (M14 melanoma): > 100 µM
TGI (IGROV1 ovarian): > 100 µM

NC(N)=NS(=O)(=O)c1ccc(Nc2c3ccccc3nc3c(C(=O)NNCCO)cccc23)cc1
TGI (A549 NSCLC): > 1 µM
TGI (OVCAR-3 ovarian): 0.269 µM
TGI (A498 renal): > 1 µM
TGI (HOP-62 NSCLC): 0.536 µM
TGI (NCI-H460 lung): 0.341 µM
TGI (OVCAR-8 ovarian): > 1 µM
TGI (SK-MEL-2 melanoma): 0.311 µM
TGI (PC-3 prostate): > 1 µM
TGI (COLO 205 colon): 0.351 µM
TGI (HS 578T breast): > 1 µM
TGI (MDA-MB-435): 0.446 µM
TGI (EKVX NSCLC): > 1 µM
TGI (HL-60(TB) leukemia): 0.671 µM
TGI (SNB-19 CNS): > 1 µM
TGI (RPMI-8226 leukemia): 0.42 µM
TGI (TK-10 renal): > 1 µM
TGI (UACC-257 melanoma): > 1 µM
TGI (RXF 393 renal): 0.756 µM
TGI (T-47D breast): 0.296 µM
TGI (MDA-MB-231 breast): 0.731 µM
TGI (CAKI-1 renal): 0.912 µM
TGI (HCC-2998 colon): 0.462 µM
TGI (OVCAR-4 ovarian): > 1 µM
TGI (HOP-92 NSCLC): > 1 µM
TGI (UO-31 renal): > 1 µM
TGI (SF-268 CNS): 0.307 µM
TGI (NCI-H23 lung): 0.28 µM
TGI (U251 CNS): 0.269 µM
TGI (UACC-62 melanoma): > 1 µM
TGI (786-0 renal): > 1 µM
TGI (SK-OV-3 ovarian): > 1 µM
TGI (NCI-H522 lung): 0.28 µM
TGI (SW-620 colon): 0.377 µM
TGI (DU-145 prostate): > 1 µM
TGI (ACHN renal): > 1 µM
TGI (SK-MEL-5 melanoma): 0.278 µM
TGI (CCRF-CEM leukemia): > 1 µM
TGI (NCI-H226 lung): 0.42 µM
TGI (MDA-N): 0.504 µM
TGI (MCF7 breast): 0.241 µM
TGI (KM12 colon): 0.287 µM
TGI (NCI/ADR-RES ovarian): > 1 µM
TGI (LOX IMVI melanoma): 0.375 µM
TGI (SK-MEL-28 melanoma): > 1 µM
TGI (K-562 leukemia): 0.422 µM
TGI (HCT-116 colon): 0.354 µM
TGI (BT-549 breast): 0.303 µM
TGI (HT29 colon): 0.933 µM
TGI (SF-539 CNS): > 1 µM
TGI (HCT-15 colon): > 1 µM
TGI (SN12C renal): > 1 µM
TGI (SF-295 CNS): > 1 µM
TGI (MOLT-4 leukemia): > 1 µM
TGI (OVCAR-5 ovarian): > 1 µM
TGI (MALME-3M melanoma): 0.273 µM
TGI (M14 melanoma): 0.456 µM
TGI (IGROV1 ovarian): 0.434 µM

— PubChem BioAssay (NCI)
